Activity calls are given as the source filed them. No cut-off for these calls is given here.
Assays:
[1] = target: T1, Histone deacetylase (Homo sapiens) (UniProt Q13547+O15379+Q9UBN7+Q92769+Q9UQL6+Q8WUI4+Q9BY41+Q96DB2+P56524+Q9UKV0+Q969S8); test: Inhibition of HDAC in human Cal27CisR cells assessed as combination index at 0.5 uM measured in presence of 10 uM cDDP by MTT-based Chou-Talalay method; assay type: cell-based
Histone deacetylase = test: Inhibition of HDAC in human CAL-27 cells using Boc-Lys (acetyl)-AMC as substrate preincubated for 18 hrs followed by susbtrate addition and measured after 3 hrs by fluorescence microplate reader assay; assay type: cell-based
Cal27CisR [2] = test: Induction of DNA damage human Cal27CisR cells assessed as upregulation of gamma H2AX in presence cisplatin measured by Western blot analysis; assay type: functional
[3] = target: T2, Protein deacetylase HDAC6 (Homo sapiens, UniProt Q9UBN7); test: Inhibition of recombinant human N-terminal GST-tagged HDAC6 (1 to 1215 residues) expressed in baculovirus infected insect cells using Boc-Lys(Ac)-AMC as substrate preincubated for 5 mins followed by substrate addition measured after 90 mins by fluorimetry
T2 sequence (Q9UBN7 whole entry): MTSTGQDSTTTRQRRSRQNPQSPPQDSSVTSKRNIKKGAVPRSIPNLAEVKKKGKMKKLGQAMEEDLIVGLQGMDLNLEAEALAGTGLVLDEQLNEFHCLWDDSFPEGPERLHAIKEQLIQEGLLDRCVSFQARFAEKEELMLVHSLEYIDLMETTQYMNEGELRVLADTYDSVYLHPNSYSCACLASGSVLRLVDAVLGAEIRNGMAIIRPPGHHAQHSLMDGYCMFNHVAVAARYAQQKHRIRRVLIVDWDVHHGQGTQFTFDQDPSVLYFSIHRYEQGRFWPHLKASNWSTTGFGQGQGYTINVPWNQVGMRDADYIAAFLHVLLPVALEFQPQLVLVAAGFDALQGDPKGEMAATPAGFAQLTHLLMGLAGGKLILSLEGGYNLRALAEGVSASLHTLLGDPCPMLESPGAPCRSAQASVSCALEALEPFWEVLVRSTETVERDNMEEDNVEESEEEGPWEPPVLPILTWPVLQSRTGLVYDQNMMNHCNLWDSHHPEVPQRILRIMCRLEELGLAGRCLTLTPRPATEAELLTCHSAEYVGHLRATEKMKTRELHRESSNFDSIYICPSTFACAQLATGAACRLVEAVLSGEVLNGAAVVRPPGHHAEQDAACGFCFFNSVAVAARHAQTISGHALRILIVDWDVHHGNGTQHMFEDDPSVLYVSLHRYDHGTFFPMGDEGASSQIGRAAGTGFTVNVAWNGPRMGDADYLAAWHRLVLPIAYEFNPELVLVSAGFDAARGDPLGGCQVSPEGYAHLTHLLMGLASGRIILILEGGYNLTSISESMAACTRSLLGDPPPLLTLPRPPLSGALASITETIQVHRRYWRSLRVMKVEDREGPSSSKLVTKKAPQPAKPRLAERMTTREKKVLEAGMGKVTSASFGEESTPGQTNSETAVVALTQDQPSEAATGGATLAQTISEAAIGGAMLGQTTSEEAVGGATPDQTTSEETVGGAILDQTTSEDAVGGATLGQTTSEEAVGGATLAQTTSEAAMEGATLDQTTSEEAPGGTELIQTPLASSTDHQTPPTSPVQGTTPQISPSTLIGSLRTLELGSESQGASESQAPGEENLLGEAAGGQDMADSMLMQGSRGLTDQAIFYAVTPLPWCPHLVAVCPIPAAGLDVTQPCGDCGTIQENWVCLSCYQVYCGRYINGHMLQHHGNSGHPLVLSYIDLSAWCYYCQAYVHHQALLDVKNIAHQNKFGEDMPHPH

Cal27CisR [4] = test: Induction of DNA damage in human Cal27CisR cells assessed as increase in gamma H2AX phosphorylation pretreated for 24 hrs followed by cisplatin treatment and further incubated for 18 hrs measured by Western blot analysis; assay type: functional, cell-based; conditions: time 42.0 hrs
[5] = target: T1, Histone deacetylase (Homo sapiens); test: Inhibition of HDAC in human Cal27CisR cells assessed as combination index at 0.5 uM measured in presence of 50 uM cDDP by MTT-based Chou-Talalay method; assay type: cell-based
CAL-27 [6] = test: Antiproliferative activity against human CAL-27 cells assessed as reduction in cell viability after 72 hrs by MTT assay; assay type: functional, cell-based; conditions: CAL-27, 72 h
Histone deacetylase 8 = target: T3, Histone deacetylase 8 (Homo sapiens, UniProt Q9BY41); test: Inhibition of recombinant human C-terminal His-fusion tagged/N-terminal Strep2 tagged HDAC8 (1 to 377 residues) expressed in insect cells using Boc-Lys(TFA)-AMC as substrate preincubated for 5 mins followed by substrate addition measured after 90 mins by fluorimetry
T3 sequence (Q9BY41 whole entry): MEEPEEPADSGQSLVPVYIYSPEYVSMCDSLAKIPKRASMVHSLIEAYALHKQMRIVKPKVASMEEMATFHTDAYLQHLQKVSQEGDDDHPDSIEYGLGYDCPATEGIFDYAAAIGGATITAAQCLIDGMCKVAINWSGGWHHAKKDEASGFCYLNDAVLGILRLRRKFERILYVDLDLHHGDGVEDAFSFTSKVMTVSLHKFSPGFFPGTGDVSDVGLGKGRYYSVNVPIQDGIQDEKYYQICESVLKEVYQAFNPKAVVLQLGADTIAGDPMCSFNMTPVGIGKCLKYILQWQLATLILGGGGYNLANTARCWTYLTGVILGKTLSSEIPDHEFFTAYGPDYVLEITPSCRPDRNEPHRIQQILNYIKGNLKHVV

Histone deacetylase 4 = Histone deacetylase 4 (Homo sapiens, UniProt P56524); test: Inhibition of recombinant human N-terminal GST-fusion tagged/C-terminal GST-tagged HDAC4 (627 to 1084 residues) expressed in baculovirus infected insect cells using Boc-Lys(TFA)-AMC as substrate preincubated for 5 mins followed by substrate addition measured after 90 mins by fluorimetry
[7] = target: Class 1 histone deacetylase (Homo sapiens) (UniProt Q13547+O15379+Q92769+Q9BY41); test: Inhibition of class-1 HDAC in human CAL-27 cells assessed as induction of histone H-3 acetylation at 5 uM for 24 hrs by Western blot analysis; assay type: cell-based
[8] = target: T4, Protein deacetylase HDAC6 (Homo sapiens) (UniProt Q9UBN7); test: Inhibition of HDAC6 in human CAL-27 cells assessed as accumulation of acetylated alpha-tubulin at 5 uM for 24 hrs by Western blot analysis; assay type: cell-based
T4 sequence (whole entry): T2 sequence (Q9UBN7 whole entry)

Histone deacetylase 2 = Histone deacetylase 2 (Homo sapiens, UniProt Q92769); test: Inhibition of recombinant human full length C-terminal GST-fusion tagged HDAC2 expressed in baculovirus infected insect cells using Boc-Lys(Ac)-AMC as substrate preincubated for 5 mins followed by substrate addition measured after 90 mins by fluorimetry; assay type: cell-based
CAL-27 [9] = test: Induction of DNA damage in human CAL-27 cells assessed as upregulation of gamma H2AX in presence cisplatin measured by Western blot analysis; assay type: functional, cell-based
CAL-27 [10] = test: Induction of DNA damage in human CAL-27 cells assessed as increase in gamma H2AX phosphorylation pretreated for 24 hrs followed by cisplatin treatment and further incubated for 18 hrs measured by Western blot analysis; assay type: functional, cell-based; conditions: time 42.0 hrs

Sequence of Histone deacetylase 2 (Q92769 whole entry, the tested form may be a part): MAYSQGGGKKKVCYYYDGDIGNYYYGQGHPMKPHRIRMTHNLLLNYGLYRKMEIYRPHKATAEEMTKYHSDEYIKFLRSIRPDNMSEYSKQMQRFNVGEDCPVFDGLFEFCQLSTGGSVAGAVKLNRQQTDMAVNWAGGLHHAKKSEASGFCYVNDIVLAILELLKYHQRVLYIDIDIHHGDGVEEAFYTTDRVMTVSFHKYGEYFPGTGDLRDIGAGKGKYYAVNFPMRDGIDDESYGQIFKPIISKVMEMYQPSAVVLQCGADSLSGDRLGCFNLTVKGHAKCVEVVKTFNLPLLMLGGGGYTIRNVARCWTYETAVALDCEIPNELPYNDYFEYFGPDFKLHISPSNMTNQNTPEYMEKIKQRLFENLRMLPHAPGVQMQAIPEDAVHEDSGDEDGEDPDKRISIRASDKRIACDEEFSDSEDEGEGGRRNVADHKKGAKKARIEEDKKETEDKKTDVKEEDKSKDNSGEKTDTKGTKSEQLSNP
Sequence of Histone deacetylase 4 (P56524 whole entry, the tested form may be a part): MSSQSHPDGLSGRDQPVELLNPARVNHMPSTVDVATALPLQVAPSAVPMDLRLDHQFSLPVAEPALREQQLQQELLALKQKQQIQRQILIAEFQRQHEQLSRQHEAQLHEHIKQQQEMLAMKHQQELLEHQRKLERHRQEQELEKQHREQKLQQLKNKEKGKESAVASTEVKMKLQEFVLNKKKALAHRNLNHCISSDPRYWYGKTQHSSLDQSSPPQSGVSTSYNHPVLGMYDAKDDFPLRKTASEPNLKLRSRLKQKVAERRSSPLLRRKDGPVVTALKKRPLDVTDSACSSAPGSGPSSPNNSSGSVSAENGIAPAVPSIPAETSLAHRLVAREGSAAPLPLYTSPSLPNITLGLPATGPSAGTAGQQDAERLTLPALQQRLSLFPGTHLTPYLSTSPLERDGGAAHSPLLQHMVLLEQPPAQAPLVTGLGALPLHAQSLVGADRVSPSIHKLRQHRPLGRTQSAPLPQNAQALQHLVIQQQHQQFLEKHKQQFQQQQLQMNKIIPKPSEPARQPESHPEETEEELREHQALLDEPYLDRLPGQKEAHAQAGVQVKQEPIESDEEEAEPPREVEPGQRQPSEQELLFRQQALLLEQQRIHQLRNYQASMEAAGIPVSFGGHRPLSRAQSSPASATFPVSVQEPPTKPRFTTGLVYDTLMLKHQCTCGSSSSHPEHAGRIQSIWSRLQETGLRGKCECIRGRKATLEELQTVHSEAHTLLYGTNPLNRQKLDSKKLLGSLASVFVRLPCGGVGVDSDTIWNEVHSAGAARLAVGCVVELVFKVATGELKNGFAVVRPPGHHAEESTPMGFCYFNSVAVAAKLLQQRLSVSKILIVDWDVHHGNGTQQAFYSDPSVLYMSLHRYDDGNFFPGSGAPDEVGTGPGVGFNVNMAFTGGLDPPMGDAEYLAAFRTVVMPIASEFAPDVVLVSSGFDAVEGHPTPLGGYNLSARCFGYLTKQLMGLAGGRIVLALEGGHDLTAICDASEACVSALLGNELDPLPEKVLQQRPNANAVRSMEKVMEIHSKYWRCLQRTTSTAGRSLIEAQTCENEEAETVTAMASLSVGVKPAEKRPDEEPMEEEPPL

Row | CI [1] | IC50 (Histone deacetylase) [µM] | IC50 [3] [µM] | CI [5] | IC50 (Histone deacetylase 8) [µM] | IC50 (Histone deacetylase 4) [µM] | Activity [7] | inhibition [8] | IC50 (Histone deacetylase 2) [µM] | SMILES | Activity (Cal27CisR [2]) | Activity (Cal27CisR [4]) | IC50 (CAL-27 [6]) [µM] | Activity (CAL-27 [9]) | Activity (CAL-27 [10])
1 | 0.13 | 0.18 | 0.025 | 0.5 | 9.78 | > 100 | Active | Active | 0.092 | O=C(CCCCCONC(=O)c1ccc2ccccc2n1)NO | Active | Active | 0.25 | Active | Active
2 | 1.11 | 1.5 | 0.173 | 0.97 | 12.4 | > 100 | Active | Active | 0.759 | O=C(CCCCCONC(=O)c1nccc2ccccc12)NO | Active | Active | 2.12 | Active | Active
3 | 0.27 | 0.12 | 0.013 | 0.47 | 10.3 | 55.7 | Active | Active | 0.057 | O=C(CCCCCONC(=O)c1cc2ccccc2[nH]1)NO | Active | Active | 0.3 | Active | Active

— ChEMBL document CHEMBL4823243, “Synergistic induction of apoptosis in resistant head and neck carcinoma and leukemia by alkoxyamide-based histone deacetylase inhibitors” (Eur J Med Chem, 2021)
